Test results: a melting point compilation (Tetko et al.; mined from patent text by program, amines drawn as free bases though some values may be those of a salt)

Compound | melting point [°C]
COC(=O)c1ccc(CNc2ccc(C)c(Nc3nccc(-c4cccnc4)n3)c2)cc1 | 158
C1=C(c2cc3ccccc3[nH]2)Cc2ccccc21 | 273 to 274
O=C(COc1ccc(Cl)cc1)N[C@@H](Cc1ccccc1)C(=O)CSCc1ccco1 | 95 to 98
CC1(C)Cc2c(c(N3CCCC3)nc3sc4c(NCc5ccncc5)ncnc4c23)CO1 | 228 to 229
CC(=Cc1ccc(F)cc1F)C(=O)O | 126 to 128
CCOC(=O)C(Cc1ccccc1CCBr)(NC(C)=O)C(=O)OCC | 86 to 86.5
COc1ccccc1NC(=O)Nc1nc(Nc2ccccc2-c2ccccc2)nc(N(CCC(=O)O)Cc2cc(C(F)(F)F)cc(C(F)(F)F)c2)n1 | 132 to 135
CCCCOc1ccc(S(=O)(=O)N2CCC(N(Cc3ccccc3)CC(O)COc3cccc4[nH]c5ccccc5c34)C2)cc1 (configuration not stated) | 73 to 76
CN1CCc2ccc3cc[nH]c3c2CC1 | 150 to 153
S=C1Nc2ccccc2Cc2nccn21 | 182 to 183
CCCNC(=O)C1(CCCCC#N)c2ccccc2-c2ccccc21 | 102 to 104
CCOC(=O)c1cc2c(Cl)ccc(N(C)S(=O)(=O)c3cccs3)c2n1COC | 137 to 138
O=C1NCCN1Cc1ccc(Cl)c(Cl)c1 | 129 to 130
O=C(O)c1cc(-c2ccccc2)ccc1O | 214 to 216
CP(C)(=O)CCCOC(=O)c1cccnc1Nc1cccc(C(F)(F)F)c1 | 165
O=C1CCC(c2ccc(-c3ccc([N+](=O)[O-])cc3F)cc2)O1 (configuration not stated) | 94
O=C(CC(=O)C(F)(F)F)c1ccc(-n2cccn2)cc1 | 96
O=C(NCCCN1CCN(Cc2ccc(Cl)cc2)CC1)Nc1ccccc1 | 135 to 137
Cc1cc(-c2ccc(Cl)cc2)cnc1N | 156
C=CC(O)c1c(C(C)C)nc(C(C)C)c(CCCCC)c1-c1ccc(F)cc1 (configuration not stated) | 83 to 85
CCCCCCCCCCCCCCCCCCNC(=O)OCC(CN)NC(=O)OC (configuration not stated) | 128 to 129
Nc1nnc(-c2cc(Cl)cc(Cl)c2Cl)c(N)n1 | 232 to 235
CCCCCCCCCCCCCCCCS(=O)(=O)NCCc1ccc(C(=O)O)cc1 | 168 to 169
Cc1cc(=O)oc2nn(Cc3cccs3)c(C)c12 | 164 to 167
CC(C)(C)c1cc(N=C2CCCc3cc4c(nc32)C(=Nc2cc(C(C)(C)C)cc(C(C)(C)C)c2)CCC4)cc(C(C)(C)C)c1 | 129 to 132
O=S(=O)(Nc1ccc(Cl)c(F)c1)c1ccccc1 | 115 to 116

Compound | melting point [°C]
COc1ccc(NC(=O)OC2CN3CCC2CC3)cc1 (configuration not stated) | 160
CNC(=O)c1cccc2cccc(NC(=O)c3cccs3)c12 | 210
Cc1ccc2c(c1)N(C(=O)CN(C)C)c1ccccc1S(=O)(=O)N2C | 135 to 137
COCCOCOc1ccc2cc(C(=O)N(C)Cc3cccc(-c4ccc(Nc5cccc(C(=O)O)c5)cc4)c3)ccc2c1 | 60
O=C1CN2C(=N1)NCc1c(Cl)cccc12 | 127 to 129
CC(=NNc1c(Cl)cc(C(F)(F)F)cc1Cl)C(=NO)C(=O)Nc1ccccc1 | 185 to 186
Oc1ccc(-c2nc(-c3ccccc3)nc(-c3ccc(O)cc3O)n2)c(O)c1 | 250 to 252
CCc1ccc(-c2ccc(C(=O)Nc3ccc4cc(CN5CCCC5)cnc4c3C)c(F)c2)cc1 | 178 to 179
O=C(Nc1cccc(NCc2ccccc2)n1)c1cc(-c2ccc(F)cc2)n(C2CCCCO2)n1 (configuration not stated) | 139 to 140
CCN(CC)CC(=O)c1cc(C(=O)c2ccc3ccccc3c2)cn1C | 130 to 132
CC12CCC(C1)C1(C)Oc3ccc(C(O)COc4ccc(C(=O)O)cc4)cc3C21C (configuration not stated) | 123
CCn1ccc(Nc2cc(Cl)nn(C)c2=O)n1 | 173 to 175
Nc1c(-c2cc(Cl)ccc2O)c2c(Cl)cc(Cl)cc2[nH]c1=O | 275 to 277
Cn1cc(-c2cccc(N3Cc4cc(C(C)(C)C)ccc4C3=O)c2CO)cc(Nc2ccccn2)c1=O | 138 to 139
CCNC(=O)C1=C(C(=O)Nc2cc(OC3CCCC3)c(Cl)cc2F)CCCC1 | 187 to 189
CCOC(=O)c1cn([C@@H]2C[C@@H]2F)c2c(C)c(F)ccc2c1=O | 187 to 188
Oc1ccccc1OCC1NCCS1 (configuration not stated) | 76 to 78
CCc1noc(-c2cn(-c3ccc(Cl)cn3)cn2)n1 | 224 to 226
CCNC(=O)CCC(=O)c1cnc2c(OC)cccc2c1Nc1ccccc1C | 88.5 to 90
CCOC(=O)c1cc2cc(N)ccc2nn1 | 204 to 206
CC(=O)NCCCc1ccc(CCl)cc1 | 89 to 90
O=C(c1ccccc1)c1ccc(OCc2ccccc2)cc1S | 122 to 123
COC(=O)CCc1cc2cc(Cl)ccc2n1S(=O)(=O)c1ccc(C(C)(C)C)cc1 | 130 to 133
c1nnnn1C1CN2CCC1CC2 (configuration not stated) | 83 to 84
Cc1cc(-c2nc3ccccc3c(=O)n2-c2ccc(Br)cc2)cc(C)c1OCCO | 164 to 165
CC1(C)c2ccccc2C(C)(C)C1(S)CCO | 85 to 87

Compound | melting point [°C]
CC1C(=O)N(c2ccc3c(c2)OCO3)C(=S)N1c1ccc(Oc2ccccc2)cc1 (configuration not stated) | 185
O=C(O)Cc1ccc(CCNC(=O)c2ccc(Cl)cc2)cc1 | 182 to 183
COc1cc(-c2nc3ccccc3n2Cc2ccccc2C(F)(F)F)cc(OC)c1OC | 144
CCCC[C@H](NC(=O)[C@H](CC(C)C)NC(=O)c1cccc(F)c1F)C(=O)CSCc1ccco1 | 120 to 122
Cc1ccccc1CNc1cc(C(=O)N(C)C)cc2c1nc(C)n2C | 158 to 159
Cc1ccc(C2c3c(C)c(N4CCN(c5ccc([N+](=O)[O-])cc5)CC4)c(C)c(C)c3OC2(C)C)cc1 (configuration not stated) | 203 to 205
CCOC(=O)C(=O)Nc1ccc(OC)cc1[N+](=O)[O-] | 151
O=C(N1CC1)C(F)(F)C(O)(Cn1cncn1)c1ccc(F)cc1F (configuration not stated) | 87.5 to 88
COC(C)(C)C(C#N)=NOCc1coc(-c2ccc(F)cc2)n1 | 75 to 77
COC(=O)[C@@H]1CN(C(=O)OC(C)(C)C)CC[C@@H]1C(=O)O (relative stereo) | 129 to 136
CC(CO)c1ccc(-c2ccc(F)cc2F)c(O)c1 (configuration not stated) | 118
CCCCCCCCCCCCCCCCCCOc1ccc(C(=O)O)cc1OCCCCCCCCCCCCCCCCCC | 94 to 117
COc1ccc2[nH]cc(CCNC=O)c2c1Cl | 120 to 121
COCCn1cc2c(C3C(=O)Nc4ccc(Br)cc43)nc(NCCN3CCOCC3)nc2n1 (configuration not stated) | > 300
CCOc1cc(N)c(Cl)cc1C(=O)NC1CCN(CC2CCN(C(=S)N(C)C)CC2)CC1 | 210 to 212
CCCN(CCC)C1Cc2cc3c(=O)[nH][nH]c(=O)c3cc2C1 | > 300
COc1cc(C(=O)O)ccc1OCCCCl | 154 to 156
CCn1cc(Cc2ccc(C(=O)OC)cc2OC)c2cc(NC(=O)CC3CCCC3)ccc21 | 144 to 146
Cn1cnc2c1c(=O)n(CCCCC(=O)CBr)c(=O)n2C | 125 to 135
CC1(C)CC(=S)Nc2ccc(-c3cccc(F)c3)cc21 | 209 to 211
CCC(CCNC(=O)CC#N)NC(=O)CC#N (configuration not stated) | 125
COc1cc(N2CCN(C)CC2)ccc1Nc1ncc2cc3ccccc3n2n1 | 150 to 153
COC1(N(C)C)C=CC(C(=O)Nc2ccccc2)=CC1 (configuration not stated) | 173
CCOC(=O)c1cn(-c2ccc(F)cc2)c2nc(Cl)c(F)cc2c1=O | 230 to 232
O=C(CCCCCBr)N1Cc2ccccc2C1 | 88
Cc1cc(CBr)nc2ccccc12 | 92

Compound | melting point [°C]
O=C(O)C=Cc1cccc(CCc2nc(-c3ccccc3)c(-c3ccccc3)o2)c1 | 114 to 115
CCOc1ccccc1C=[N+]([O-])C1CCC1 | 76
CC(C)n1c(S(=O)(=O)c2ccc(OCc3ccccc3)cc2)nc2ccccc21 | 94 to 96
COc1cc2c(cc1OC)CCC(C(=O)N1CCN(C(=O)c3cc(OC)c(OC)cc3OC)CC1)=C2 | 171 to 172
CCOC(=O)c1ccc(Sc2cc3c(cc2C)C(C)(C)CCC3(C)C)cc1O | 74 to 75
CCOCn1cnc2c(N)nc3ccccc3c21 | 255 to 261
COc1ccc2c(c1)CCC2n1cc[nH]c1=S (configuration not stated) | 195 to 196
CSc1ccc2c(C3CCN(C(C)=O)CC3)nn(-c3ccccc3)c2c1 | 120 to 122
Cn1cc(C(=O)CCn2ccnc2)c2ccccc21 | 121 to 123
CC(C)N1C(=O)C(=O)NC1=NC(=N)Nc1ccc(Cl)c(Cl)c1 | 230
NC(=O)c1cn(Cc2ccccc2F)cn1 | 204 to 205
COC(=O)N(CC(=O)Nc1ccc(S(N)(=O)=O)cc1)c1ccccc1 | 196 to 199
CC(OCc1ccc(-c2ccccc2)cc1)C(=O)NO (configuration not stated) | 120 to 123
CC(C)(C)c1c(Cl)nc(OCc2ccccc2)nc1OCc1ccccc1 | 96
CCc1c(N)c(C(N)=O)nn1Cc1cccnn1 | 177 to 185
CCn1nc2c(N)nc3c(c2c1CCC1CCCCC1)CCCC3 | 177 to 179
Cc1nn(-c2c(Cl)cc(C(F)(F)F)cc2Cl)nc1SC#N | 115 to 117
CCc1cc(C(=O)O)c(Nc2ccccc2[N+](=O)[O-])s1 | 189 to 191
CO/N=C(/CNC(=O)c1cnc(O[C@@H](C)C(F)(F)F)c(-c2ccc(Cl)cc2)n1)C1CC1 | 149 to 152
CC(C)n1c(=O)nc(-c2ccc3c(c2)CCO3)c2cc3c(cc21)OCO3 | 206 to 209
COc1ccc2c(c1)sc1nc(C(O)C3CC3)cn12 (configuration not stated) | 151 to 153
COC(=O)c1cccc2c1Oc1ccccc1N2 | 113 to 114
O=C(Cc1noc2ccccc12)NS(=O)(=O)C1CC1 | 147 to 148
CCCCCC(Sc1ccc(OC)cc1)C(=O)O (configuration not stated) | 90 to 95
